Measured values taken from article PMC12333940, “A prometabolite strategy inhibits cardiometabolic disease in an ApoE^–/– murine model of atherosclerosis” (JCI Insight, 2025).
“And” between values parts separate entries of the source, which are not always exact repeats. Identical values can stand only once.

Columns and labels:
RAW 264.7 macrophages = test: LEGENDPlex cytokines in supernatant of LPS-stimulated RAW 264.7; assay type: cell-based; parameters: TNFa (Legendplex) / MCP-1 (Legendplex) / IL-10 (Legendplex) / IL-6 (Legendplex): unit not given here
Description: RAW 264.7 (ATCC, TIB-71) macrophages were cultured at 37°C and 5% CO2 in DMEM (Gibco) supplemented with 1 mM HEPES, 1 mM sodium pyruvate, 10% FBS, and penicillin/streptomycin. Cells were plated in round-bottom 96-well plates at 100,000 cells per well and incubated with different concentrations of either NaBut or SerBut (0.15–12 mM) for 24 hours. Cells were then rinsed with PBS and then stimulated with 200 ng/mL LPS in media for 6 hours. The cell culture supernatant was collected and analyzed by LEGENDPlex to analyze the concentrations of cytokines (BioLegend). Cell phenotype was analyzed using flow cytometry (Cytek Aurora).

ApoE^–/– mice on an HFD [1] = test: Blood chemical analysis of plasma; assay type: in vivo, mouse; parameters: Lipase / ALT / Altherogenic Lipids (Chol-HDL) / HDL-C / LDL-C: unit not given here
Description: SerBut water was pH adjusted using 10 M NaOH to a final pH of 7.4. […] After 6 weeks, mice were euthanized. […] The liver was harvested and part was homogenized in tissue protein extraction reagent buffer (Invitrogen, 78510) supplemented with protease inhibitor mini tablets (Thermo Fisher Scientific, PIA32955) for Western blotting and qPCR. […] Blood chemical analysis was performed on an Alfa […] Chemistry Analyzer. Reagent kits from Alfa Wasserman were used according to manufacturer's instructions to analyze plasma: lipase (catalog SA1045), HDL-C (catalog SA2038, LDL-C (catalog SA1040), AST (catalog SA1053), ALT (catalog SA1052). A LEGENDPlex was utilized to analyze the concentrations of inflammatory cytokines (BioLegend).

ApoE^–/– mice on an HFD [2] = test: Immunofluorescent staining of the aortic root (CD68, iNOS, DAPI); assay type: in vivo, mouse; parameters: Immunoflourescence Quantification #Cells/Area / Immunoflourescence Quantification #iNOS+/Area: unit not given beside the values
Source text: SerBut water was pH adjusted using 10 M NaOH to a final pH of 7.4. […] After 6 weeks, mice were euthanized. […] The liver was harvested and part was homogenized in tissue protein extraction reagent buffer (Invitrogen, 78510) supplemented with protease inhibitor mini tablets (Thermo Fisher Scientific, PIA32955) for Western blotting and qPCR. […] Aortic root sections were brought to room temperature and rehydrated with PBS and permeabilized with 10% dimethyl sulfoxide (DMSO). […] Sections were washed again in PBS with 0.1% Tween 20 and then PBS and mounted with ProLong Gold Antifade Mountant with DAPI (Invitrogen). Slides were imaged with a DMI8 inverted fluorescence microscope (Leica Microsystems) and analyzed with QuPath (v0.5.0).

ApoE^–/– mice on an HFD [3] = test: Histological grading and scoring of livers; assay type: in vivo, mouse; parameters: key to Liver Grading and Staging: Lobular inflammation (CD3+): one focus in which more than 10 periductal CD3^+ lymphocytes are found in an ×200 field; 2 to 5 instances of more than 10 periductal CD3^+ immune cells in an ×200 field; 3: Any sample exceeding this threshold
Description: For 6 weeks, mice were freely administered water, water containing 150 mM SerBut, or water containing an equimolar amount of NaBut. SerBut water was pH adjusted using 10 M NaOH to a final pH of 7.4. […] In concert, mice were fed an HFD with 42% from fat and 0.2% total cholesterol (Envigo, TD-88137) ad libitum. After 6 weeks, mice were euthanized. The lMLNs, ILNs, spleen, heart, and aorta were harvested and processed for flow cytometry analysis ([67]). The liver was harvested and part was homogenized in tissue protein extraction reagent buffer (Invitrogen, 78510) supplemented with protease inhibitor mini tablets (Thermo Fisher Scientific, PIA32955) for Western blotting and qPCR. The remaining liver was fixed with 4% paraformaldehyde and embedded in paraffin for histological analysis.
Sections (8 μm thick) were stained. Digital image files were created with an Olympus VS200 Research Slide Scanner (Olympus/Evident) with a Hamamatsu ORca-Fusion camera (Hamamatsu Photonics) at ×40 magnification. Individual images were created with the OlyVIA Viewer software (Olympus/Evident). Scoring and grading was performed by a pathologist as previously described ([48]). Immunohistochemistry grading was informed by age-matched WT controls. In age-matched WT controls, CD3^+ immune cells were seen scattered without distinct aggregate formation nor associated tissue reaction. In an ×400 field, we observed up to 25 CD3^+ immune cells scattered in an even distribution, with rare events of up to 10 periductal CD3^+ immune cells but with no associated ductal or parenchymal reaction. […] Furthermore, a score of 2 corresponds to 2 to 5 instances of more than 10 periductal CD3^+ immune cells in an ×200 field. Any sample exceeding this threshold was scored a 3.

[4] = Biodistribution of free butyrate in intestinal tissue and contents, C57BL/6 mice; assay type: in vivo; details: C57BL/6, normal chow; 3 hr after single gavage
Source text: NaBut is limited in its translation by butyrate’s rapid consumption by colonocytes as a primary energy source in the distal gut. We propose that the enhanced biodistribution of free, active butyrate (following cleavage from serine) in SerBut-treated mice is due to small intestinal escape from the gut via amino acid transporters. To probe this hypothesis, we repeated the experiment and analyzed the biodistribution of free active butyrate in distinct sections of the intestinal tissue and the intestinal contents (Figure 2, K and L, and Supplemental Figure 2). Because neither ApoE^–/– nor HFD feeding would be expected to change amino acid receptor expression or function in the intestine, this was performed in C57BL/6 mice on a normal diet. […] We saw no increase in butyrate in the colon tissue (Figure 2P).
Samples were prepared and derivatized as described previously ([28]). […] The internal standard, 4-methylvaleric acid, was added.
Injection volume: 5.0 μL. Flow rate: 0.5 mL/min.

[5] = Blood Chemistry, 6wk, individual mice, experiments 1 and 2
[6] = aortic root, individual samples
[7] = liver, individual mice, 150 mM ad libitum for 6 weeks, HFD

## CCCC(=O)[O-].[Na+] [NaBut, sodium butyrate, reference compound]
RAW 264.7 macrophages; 0.15 mM 24 h, then LPS 6 h
  IL-10 (Legendplex): 8.317 and 9.29 and 13.129 and 8.37
  MCP-1 (Legendplex): 1660.24 and 2264.24 and 1687.05 and 2929.5 and 2357.33 and 2465.59
  TNFa (Legendplex): 3467.9 and 2909.16 and 2378.78 and 3607.94 and 2472.11 and 3683.23
RAW 264.7 macrophages; 0.45 mM 24 h, then LPS 6 h
  MCP-1 (Legendplex): 2112.3 and 1670.81 and 2406.34 and 3206.1 and 2298.22 and 2148.28
  TNFa (Legendplex): 3244.2 and 3100.16 and 2160.11 and 2490.85 and 3404.75 and 4226.6
RAW 264.7 macrophages; 1.3 mM 24 h, then LPS 6 h
  IL-6 (Legendplex): 176.681 and 160.514 and 142.105 and 263.619 and 136.873 and 198.799
  IL-10 (Legendplex): 98.389 and 140.989 and 108.157 and 179.138 and 132.561 and 143.069
  MCP-1 (Legendplex): 906.304 and 776.372 and 770.115 and 1009 and 667.135 and 799.178
  TNFa (Legendplex): 1902.56 and 1870.65 and 1906.93 and 1713.88 and 1376.2 and 1809.49
RAW 264.7 macrophages; compared with LPS-stimulated controls
  IL-10: significantly increased
ApoE^–/– mice on an HFD [1]; 6 weeks
  lipase in the plasma: significant increase
  total cholesterol or triglycerides in the plasma: Neither SerBut nor NaBut influenced
ApoE^–/– mice on an HFD [1]; 6 weeks, 150 mM in drinking water, HFD
  LDL-C as a fraction of total cholesterol: significantly reduced
ApoE^–/– mice on an HFD [1]; [5]
  Altherogenic Lipids (Chol-HDL): 872 and 974 and 870 and 998 and 868 and 1098 and 1088 and 922 and 790 and 882
  HDL-C: 44 and 40 and 42 and 36 and 38
ApoE^–/– mice on an HFD [1]; Blood Chemistry, individual mice, experiments 1 and 2
  LDL-C: 284 and 358 and 282 and 372 and 310 and 334 and 344 and 346 and 348 and 320
ApoE^–/– mice on an HFD [1]; plasma at 6 weeks, 150 mM in drinking water ad libitum with HFD, individual mice
  ALT: 35.16 and 44.74 and 39.32 and 26.1 and 40.12 and 26.24 and 30.52 and 29.96 and 35.92 and 47.84
ApoE^–/– mice on an HFD [1]; plasma at 6 weeks, 150 mM in drinking water with HFD
  Lipase: 118 and 92 and 98 and 112 and 94 and 122 and 124 and 106
ApoE^–/– mice on an HFD [2]; 6 weeks, compared with water- and SerBut-treated groups
  CD68^+ cells and iNOS^+ cells per unit area atherosclerotic lesion: increased
ApoE^–/– mice on an HFD [2]; [6]
  Immunoflourescence Quantification #CD68: 1074 and 944 and 743 and 1249 and 728 and 1069 and 1053 and 1330 and 954 and 511
  Immunoflourescence Quantification #Cells: 1302 and 1139 and 1013 and 1531 and 949 and 1262 and 1685 and 1684 and 1364 and 682
  Immunoflourescence Quantification #Cells/Area: 0.004391 and 0.005279 and 0.00411 and 0.005114 and 0.004088 and 0.003979 and 0.00428 and 0.00408 and 0.005037 and 0.004831
  Immunoflourescence Quantification #iNOS+: 500 and 473 and 401 and 466 and 354 and 445 and 695 and 625 and 264
  Immunoflourescence Quantification #iNOS+/Area: 0.001686 and 0.002192 and 0.001627 and 0.001557 and 0.001525 and 0.001403 and 0.001765 and 0.001514 and 0.00187
  Immunoflourescence Quantification CD68+/Area: 0.003622 and 0.004376 and 0.003015 and 0.004172 and 0.003136 and 0.00337 and 0.002675 and 0.003222 and 0.003523 and 0.003619
  Immunoflourescence Quantification CD68+iNOS+: 445 and 379 and 322 and 434 and 281 and 393 and 535 and 517 and 202
  Immunoflourescence Quantification CD68+iNOS+/Area: 0.001501 and 0.001757 and 0.001307 and 0.00145 and 0.001211 and 0.001239 and 0.001359 and 0.001252 and 0.001431
ApoE^–/– mice on an HFD [3]; 6 weeks
  CD3^+ immune cell infiltration into the livers, lobular inflammation: Neither SerBut nor NaBut significantly reduced
  hepatocellular nuclear hypertrophy: suppressed
ApoE^–/– mice on an HFD [3]; [7]
  Liver Grading and Staging: Balooning Grade, Hypertrophy: 2 and 1
  Liver Grading and Staging: Lobular inflammation (CD3+): 1 and 2 and 3 and 0
  Liver Grading and Staging: Steatosis Grade, Macro fat: 1 and 2
  NAS score (steatosis, inflammation, Ballooning): 4 and 5 and 6 and 3 and 2
[4]
  free butyrate, Colon Contents: 384.57 µg/g
  free butyrate, Lower SI Contents: 41.6523 µg/g and 45.1024 µg/g and 60.4329 µg/g and 68.0864 µg/g
